Assay results from ChEMBL document CHEMBL1201862, “PubChem BioAssay data set” (2004).
The source made the active and inactive calls.

Experiments:
[1] = target: Tyrosine-protein phosphatase non-receptor type 5 (Homo sapiens, UniProt P54829); test: PTPN5 enzyme inhibition – biochemical, fluorescence intensity, uHTS hits, confirmation (AID 602372); format: functional; conditions: read-out: IC50_Mean
[2] = target: Dual specificity protein phosphatase 3 (Homo sapiens, UniProt P51452); test: VHR phosphatase inhibition, dose response, selectivity assay for STEP inhibitor project, biochemical (AID 602374); format: functional; conditions: read-out: IC50_Mean
[3] = target: Tyrosine-protein phosphatase non-receptor type 11 (Homo sapiens, UniProt Q06124); test: PTPN11 enzyme inhibitors – biochemical, selectivity assay for STEP inhibitor project, dose response (AID 602367); format: functional; conditions: read-out: IC50_Mean
[4] = target: T1, Low molecular weight phosphotyrosine protein phosphatase (Homo sapiens, UniProt P24666); format: functional; conditions: read-out: IC50_Mean;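 note: Dose-response confirmation assay measuring inhibition of LMPTP enzyme activity by fluorescence intensity read-out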
T1 sequence (P24666 whole entry): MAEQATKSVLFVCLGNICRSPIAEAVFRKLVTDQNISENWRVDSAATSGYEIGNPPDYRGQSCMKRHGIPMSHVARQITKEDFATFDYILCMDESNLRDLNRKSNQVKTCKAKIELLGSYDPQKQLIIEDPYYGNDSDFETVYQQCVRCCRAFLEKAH

[5] = test system: Vero; test: viability loss in Vero cells – cell-based, plate reader, cherry-pick samples, cytotoxicity control, dose response (AID 687020); format: functional; conditions: Chlorocebus sabaeus
[6] = target: Melanocortin receptor 4 (Homo sapiens, UniProt P32245); format: functional, cell-based;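 note: Cell-based assay with luminescence read-out, confirmatory dose-response testing for agonist activity of biased ligands at MC4R; human U2OS cells with tagged receptor and beta-arrestin; potency of agonists that increase receptor coupling to beta-arrestin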
[7] = test system: A549; test: viability loss in A549 cells – cell-based, plate reader, cherry-pick samples, cytotoxicity control, dose response (AID 687028); format: functional; conditions: Homo sapiens
[8] = target: Mitochondrial peptide methionine sulfoxide reductase (Bos taurus, UniProt P54149); format: functional;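 note: absorbance read-out, biochemical high-throughput dose-response screen for MsrA inhibitors, confirmatory; recombinant bovine MsrA coupled to E. coli TrxB with NADPH and selenocystamine; potency is for inhibitors of MsrA activity on DMSO substrate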
[9] = cells; format: functional, cell-based
[10] = target: T2, Carboxy-terminal domain RNA polymerase II polypeptide A small phosphatase 1 (Homo sapiens, UniProt Q9GZU7); test: CTDSP1 inhibitors, concentration-response, biochemical, absorbance readout, ultra-high-throughput screen actives (AID 540297); format: functional
T2 sequence (Q9GZU7 whole entry): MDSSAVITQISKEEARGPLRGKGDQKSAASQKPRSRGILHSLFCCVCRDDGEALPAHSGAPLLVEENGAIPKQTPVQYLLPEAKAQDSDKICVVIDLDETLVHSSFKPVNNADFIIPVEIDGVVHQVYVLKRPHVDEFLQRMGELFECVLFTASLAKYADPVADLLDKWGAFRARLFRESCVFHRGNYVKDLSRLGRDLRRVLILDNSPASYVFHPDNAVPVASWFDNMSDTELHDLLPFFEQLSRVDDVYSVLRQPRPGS

[11] = cells; format: functional, cell-based; remark: listed apart in the source
[12] = target: T3, Sentrin-specific protease 8 (Homo sapiens, UniProt Q96LD8); format: functional
T3 sequence (Q96LD8 whole entry): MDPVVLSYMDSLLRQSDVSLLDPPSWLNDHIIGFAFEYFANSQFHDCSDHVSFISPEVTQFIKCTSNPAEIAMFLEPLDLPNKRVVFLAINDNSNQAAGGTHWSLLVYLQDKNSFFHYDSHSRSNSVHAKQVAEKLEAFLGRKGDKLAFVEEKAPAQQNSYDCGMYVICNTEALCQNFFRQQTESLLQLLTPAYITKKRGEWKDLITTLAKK

[13] = target: T3, Sentrin-specific protease 8; format: functional; remark: listed apart in the source
[14] = target: DNA repair and recombination protein RAD54-like (Homo sapiens, UniProt Q92698); test: RAD54 Holliday junction migration blockers – biochemical, fluorescence, cherry-picked samples, dose series, confirmation (AID 651657); format: functional
[15] = target: Cytochrome P450 3A4 (Homo sapiens, UniProt P08684);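 note: CYP3A4 tested as one member of a cytochrome P450 panel screen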
[16] = target: Cytochrome P450 2D6 (Homo sapiens, UniProt P10635);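 note: CYP2D6 member of a cytochrome P450 panel assay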
[17] = target: T4, DNA repair protein RAD52 homolog (Homo sapiens, UniProt P43351); format: functional, biochemical
T4 sequence (P43351 whole entry): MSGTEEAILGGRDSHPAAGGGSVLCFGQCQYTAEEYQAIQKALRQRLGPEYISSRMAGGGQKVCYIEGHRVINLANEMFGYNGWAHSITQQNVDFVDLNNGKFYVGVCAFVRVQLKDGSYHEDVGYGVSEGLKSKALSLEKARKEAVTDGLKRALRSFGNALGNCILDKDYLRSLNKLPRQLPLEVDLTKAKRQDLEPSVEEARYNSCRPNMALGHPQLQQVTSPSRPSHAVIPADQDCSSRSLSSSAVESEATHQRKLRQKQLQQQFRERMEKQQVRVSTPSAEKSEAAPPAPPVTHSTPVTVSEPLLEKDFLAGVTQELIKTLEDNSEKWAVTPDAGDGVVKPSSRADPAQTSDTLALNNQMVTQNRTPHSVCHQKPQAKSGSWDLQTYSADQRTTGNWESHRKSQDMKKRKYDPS

[18] = target: Fructose-bisphosphate aldolase (Mycobacterium tuberculosis, UniProt P9WQA3); test: Fluorescence-based biochemical high throughput dose response assay for inhibitors of the fructose-bisphosphate aldolase (FBA) of M. tuberculosis.; format: functional
[19] = target: Steroidogenic factor 1 (Homo sapiens, UniProt Q13285); test: Counterscreen for inverse agonists of the liver receptor homolog-1 (LRH-1; NR5A2): Luminescence-based cell-based high throughput dose response assay to identify inverse agonists of the Steroidogenic Factor 1 Nuclear Receptor (SF1; NR5A1).; format: functional
[20] = target: Luciferin 4-monooxygenase (Photinus pyralis, UniProt P08659); test: inhibition of purified Photinus pyralis luciferase – biochemical, luminescence, dose response (AID 1891)
[21] = Luminescence Cell-Based Dose Confirmation HTS to Identify Inhibitors of Platelet Dense Granule Release. [Related pubchem assays: 1663 (Primary HTS), 1678 (Summary of Project)]; format: functional
[22] = viability loss in HeLa cells – cytotoxicity control for MgcRacGAP inhibitor project, dose response (AID 624300); format: functional
[23] = target: T5, Methionyl-tRNA synthetase, putative (Trypanosoma brucei brucei, UniProt Q38C91); format: functional, Trypanosoma brucei brucei strain 927/4 GUTat10.1
T5 sequence (Q38C91 whole entry): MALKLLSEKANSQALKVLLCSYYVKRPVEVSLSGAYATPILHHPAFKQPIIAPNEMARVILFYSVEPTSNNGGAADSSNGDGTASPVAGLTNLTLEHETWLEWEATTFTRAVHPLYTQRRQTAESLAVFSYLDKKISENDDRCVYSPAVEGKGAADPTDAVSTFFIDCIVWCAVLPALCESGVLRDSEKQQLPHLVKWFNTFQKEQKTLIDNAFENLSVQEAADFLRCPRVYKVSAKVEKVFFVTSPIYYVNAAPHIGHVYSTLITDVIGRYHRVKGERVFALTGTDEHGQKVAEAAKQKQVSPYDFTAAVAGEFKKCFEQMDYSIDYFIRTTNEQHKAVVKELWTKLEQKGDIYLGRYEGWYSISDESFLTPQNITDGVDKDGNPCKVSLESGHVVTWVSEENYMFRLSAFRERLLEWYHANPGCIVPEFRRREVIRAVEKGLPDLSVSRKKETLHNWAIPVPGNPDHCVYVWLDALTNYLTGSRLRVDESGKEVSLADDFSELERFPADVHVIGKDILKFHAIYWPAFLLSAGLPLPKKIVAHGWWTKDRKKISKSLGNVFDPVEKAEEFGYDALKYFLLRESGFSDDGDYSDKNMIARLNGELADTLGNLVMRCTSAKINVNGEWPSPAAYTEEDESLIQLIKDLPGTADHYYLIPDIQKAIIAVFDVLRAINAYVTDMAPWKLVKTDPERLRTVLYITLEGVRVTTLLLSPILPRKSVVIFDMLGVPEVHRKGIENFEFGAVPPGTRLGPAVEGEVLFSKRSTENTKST

[24] = Counterscreen for inhibitors of Trypanosoma brucei methionyl tRNA synthetase (MetRS): Luminescence-based cell-based high throughput dose response assay to identify compounds that are cytotoxic to Jurkat human T lymphocyte cells.; format: functional
[25] = target: T5, Methionyl-tRNA synthetase, putative; format: functional, Trypanosoma brucei brucei strain 927/4 GUTat10.1; remark: listed apart in the source
[26] = test system: Vero; test: mammalian cell viability reduction – secondary assay, cytotoxicity control for West Nile virus antiviral project, dose response (AID 1650); format: functional; conditions: Chlorocebus sabaeus
[27] = target: DNA (cytosine-5)-methyltransferase 1 (Homo sapiens, UniProt P26358); test: inhibition of DNA methylation by DNMT1 – biochemical, fluorescent molecular beacon, confirmation (AID 602386); format: functional
[28] = target: Beta-lactamase (Salmonella choleraesuis (strain SC-B67), UniProt Q5J463); test: Epi-absorbance-based counterscreen for selective VIM-2 inhibitors: dose response biochemical high throughput screening assay to identify inhibitors of TEM-1 serine-beta-lactamase.
[29] = target: T6, Beta-lactamase (Pseudomonas aeruginosa, UniProt Q79MP6); test: inhibition of IMP-1 beta-lactamase activity – biochemical, epi-absorbance, selectivity assay for VIM-2 inhibitor project, dose response (AID 1920)
[30] = target: T6, Beta-lactamase; test: […] counterscreen for selective VIM-2 inhibitors: dose response biochemical high throughput screening assay to identify inhibitors of IMP-1 metallo-beta-lactamase.
[31] = target: T7, Rac GTPase-activating protein 1 (Homo sapiens, UniProt Q9H0H5); test: blockers of MgcRacGAP-driven Rac1 GTP hydrolysis – biochemical, ADP Hunter fluorescence, primary and confirmatory, confirmation (AID 624330); format: functional
T7 sequence (Q9H0H5 whole entry): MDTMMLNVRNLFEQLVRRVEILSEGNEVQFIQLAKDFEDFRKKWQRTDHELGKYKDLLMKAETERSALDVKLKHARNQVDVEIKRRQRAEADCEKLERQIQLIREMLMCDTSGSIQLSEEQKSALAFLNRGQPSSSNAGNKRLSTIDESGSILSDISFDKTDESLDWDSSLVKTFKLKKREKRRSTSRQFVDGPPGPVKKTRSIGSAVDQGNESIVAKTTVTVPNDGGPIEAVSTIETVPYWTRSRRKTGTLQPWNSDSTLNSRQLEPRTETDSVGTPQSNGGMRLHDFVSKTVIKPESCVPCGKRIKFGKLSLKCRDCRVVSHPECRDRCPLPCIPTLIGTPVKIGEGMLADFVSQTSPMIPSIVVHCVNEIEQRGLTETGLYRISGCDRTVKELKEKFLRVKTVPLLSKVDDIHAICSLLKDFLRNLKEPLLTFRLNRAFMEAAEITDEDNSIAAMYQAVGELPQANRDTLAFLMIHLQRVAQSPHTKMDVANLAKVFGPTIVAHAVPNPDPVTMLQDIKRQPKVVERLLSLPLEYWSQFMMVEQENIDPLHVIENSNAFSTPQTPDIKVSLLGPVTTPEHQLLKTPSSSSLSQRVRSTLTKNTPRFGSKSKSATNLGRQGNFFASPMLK

[32] = target: G-protein coupled receptor 55 (Homo sapiens, UniProt Q9Y2T6); test: inhibition of LPI-stimulated GPR55 beta-arrestin translocation – imaging, U2OS, beta-arrestin-GFP, LPI agonist, primary screen (AID 2013); format: functional;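 note: antagonist potency measured as reduced agonist-driven arrestin aggregation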

T6 sequence (Q79MP6 whole entry): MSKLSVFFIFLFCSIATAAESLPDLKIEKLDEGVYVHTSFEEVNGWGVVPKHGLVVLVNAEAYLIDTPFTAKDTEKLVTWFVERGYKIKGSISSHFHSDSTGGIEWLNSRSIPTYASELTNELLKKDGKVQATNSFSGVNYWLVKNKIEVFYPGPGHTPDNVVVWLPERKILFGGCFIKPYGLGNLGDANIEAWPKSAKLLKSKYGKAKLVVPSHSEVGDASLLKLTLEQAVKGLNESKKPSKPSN
Chain of Tyrosine-protein phosphatase non-receptor type 5 (P54829 whole entry): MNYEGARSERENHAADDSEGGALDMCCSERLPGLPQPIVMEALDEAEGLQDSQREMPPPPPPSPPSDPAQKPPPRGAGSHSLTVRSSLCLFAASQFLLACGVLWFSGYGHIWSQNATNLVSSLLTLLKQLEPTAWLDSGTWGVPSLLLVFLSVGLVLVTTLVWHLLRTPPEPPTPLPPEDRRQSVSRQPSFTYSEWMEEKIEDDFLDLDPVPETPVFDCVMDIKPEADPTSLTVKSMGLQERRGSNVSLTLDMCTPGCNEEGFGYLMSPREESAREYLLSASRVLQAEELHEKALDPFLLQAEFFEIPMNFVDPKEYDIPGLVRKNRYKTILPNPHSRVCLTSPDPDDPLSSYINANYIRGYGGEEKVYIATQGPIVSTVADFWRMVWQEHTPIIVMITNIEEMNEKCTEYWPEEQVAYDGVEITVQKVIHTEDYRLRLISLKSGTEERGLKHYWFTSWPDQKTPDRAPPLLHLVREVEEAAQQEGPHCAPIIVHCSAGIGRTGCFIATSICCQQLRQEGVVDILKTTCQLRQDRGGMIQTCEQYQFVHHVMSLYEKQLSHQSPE
Chain of Tyrosine-protein phosphatase non-receptor type 11 (Q06124 whole entry): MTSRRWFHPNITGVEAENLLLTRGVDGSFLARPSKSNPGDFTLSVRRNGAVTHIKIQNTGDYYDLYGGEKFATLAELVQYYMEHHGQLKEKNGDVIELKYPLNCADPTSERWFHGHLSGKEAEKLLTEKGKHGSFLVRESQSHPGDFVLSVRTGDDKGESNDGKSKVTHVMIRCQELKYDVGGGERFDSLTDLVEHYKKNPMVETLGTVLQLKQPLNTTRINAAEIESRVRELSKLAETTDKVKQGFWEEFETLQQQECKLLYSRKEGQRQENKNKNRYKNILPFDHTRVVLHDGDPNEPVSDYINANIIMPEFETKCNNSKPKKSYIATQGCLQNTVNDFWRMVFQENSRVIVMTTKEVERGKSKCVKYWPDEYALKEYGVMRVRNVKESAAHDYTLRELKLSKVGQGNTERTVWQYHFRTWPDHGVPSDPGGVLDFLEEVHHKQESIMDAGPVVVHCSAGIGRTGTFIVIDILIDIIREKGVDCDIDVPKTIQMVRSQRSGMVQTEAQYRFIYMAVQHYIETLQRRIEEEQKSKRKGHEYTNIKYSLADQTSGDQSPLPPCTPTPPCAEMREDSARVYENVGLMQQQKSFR
Chain of DNA repair and recombination protein RAD54-like (Q92698 whole entry): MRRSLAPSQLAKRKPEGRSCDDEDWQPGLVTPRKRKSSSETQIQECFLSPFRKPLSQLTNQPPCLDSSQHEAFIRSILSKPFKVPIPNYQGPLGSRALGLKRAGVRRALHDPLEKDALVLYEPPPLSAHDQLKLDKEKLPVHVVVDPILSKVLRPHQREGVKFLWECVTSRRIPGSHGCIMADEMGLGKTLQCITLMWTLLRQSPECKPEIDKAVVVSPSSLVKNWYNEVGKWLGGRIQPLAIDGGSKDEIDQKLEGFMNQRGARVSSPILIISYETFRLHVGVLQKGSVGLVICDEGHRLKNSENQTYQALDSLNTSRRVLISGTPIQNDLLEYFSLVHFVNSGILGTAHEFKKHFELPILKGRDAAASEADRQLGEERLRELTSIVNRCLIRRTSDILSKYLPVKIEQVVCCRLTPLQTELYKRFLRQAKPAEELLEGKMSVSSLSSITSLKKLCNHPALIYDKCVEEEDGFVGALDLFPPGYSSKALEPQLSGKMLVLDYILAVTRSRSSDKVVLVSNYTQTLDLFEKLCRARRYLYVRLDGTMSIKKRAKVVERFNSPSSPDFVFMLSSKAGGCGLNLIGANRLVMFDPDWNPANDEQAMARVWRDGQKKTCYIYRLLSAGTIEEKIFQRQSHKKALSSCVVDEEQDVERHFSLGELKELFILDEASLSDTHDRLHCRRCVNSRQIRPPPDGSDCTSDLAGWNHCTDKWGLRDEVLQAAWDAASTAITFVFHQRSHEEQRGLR
Chain of Dual specificity protein phosphatase 3 (P51452 whole entry): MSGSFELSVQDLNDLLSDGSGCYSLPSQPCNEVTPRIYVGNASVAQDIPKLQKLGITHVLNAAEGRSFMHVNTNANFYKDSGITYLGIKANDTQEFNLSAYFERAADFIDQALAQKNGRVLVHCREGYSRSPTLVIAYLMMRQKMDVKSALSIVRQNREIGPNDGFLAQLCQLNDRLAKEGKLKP
Chain of Beta-lactamase (Salmonella choleraesuis (strain SC-B67), UniProt Q5J463) (Q5J463 whole entry): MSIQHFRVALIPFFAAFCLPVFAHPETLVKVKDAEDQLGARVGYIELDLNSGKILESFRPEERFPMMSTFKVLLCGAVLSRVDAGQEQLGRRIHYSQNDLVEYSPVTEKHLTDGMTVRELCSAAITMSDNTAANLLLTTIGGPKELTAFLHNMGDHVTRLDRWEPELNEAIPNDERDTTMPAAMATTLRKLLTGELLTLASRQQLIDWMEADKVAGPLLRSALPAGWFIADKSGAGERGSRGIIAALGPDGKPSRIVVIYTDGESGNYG
Chain of Fructose-bisphosphate aldolase (P9WQA3 whole entry): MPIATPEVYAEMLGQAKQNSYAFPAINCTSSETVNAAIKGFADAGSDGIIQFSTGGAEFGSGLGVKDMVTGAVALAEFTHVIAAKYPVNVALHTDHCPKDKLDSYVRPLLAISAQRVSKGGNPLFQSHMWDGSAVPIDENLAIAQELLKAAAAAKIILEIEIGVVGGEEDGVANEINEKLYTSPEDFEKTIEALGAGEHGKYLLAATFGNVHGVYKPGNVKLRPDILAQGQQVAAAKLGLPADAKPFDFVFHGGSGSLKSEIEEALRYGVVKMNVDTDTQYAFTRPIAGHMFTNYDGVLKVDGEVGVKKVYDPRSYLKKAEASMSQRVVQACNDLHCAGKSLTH
Chain of DNA (cytosine-5)-methyltransferase 1 (P26358 whole entry): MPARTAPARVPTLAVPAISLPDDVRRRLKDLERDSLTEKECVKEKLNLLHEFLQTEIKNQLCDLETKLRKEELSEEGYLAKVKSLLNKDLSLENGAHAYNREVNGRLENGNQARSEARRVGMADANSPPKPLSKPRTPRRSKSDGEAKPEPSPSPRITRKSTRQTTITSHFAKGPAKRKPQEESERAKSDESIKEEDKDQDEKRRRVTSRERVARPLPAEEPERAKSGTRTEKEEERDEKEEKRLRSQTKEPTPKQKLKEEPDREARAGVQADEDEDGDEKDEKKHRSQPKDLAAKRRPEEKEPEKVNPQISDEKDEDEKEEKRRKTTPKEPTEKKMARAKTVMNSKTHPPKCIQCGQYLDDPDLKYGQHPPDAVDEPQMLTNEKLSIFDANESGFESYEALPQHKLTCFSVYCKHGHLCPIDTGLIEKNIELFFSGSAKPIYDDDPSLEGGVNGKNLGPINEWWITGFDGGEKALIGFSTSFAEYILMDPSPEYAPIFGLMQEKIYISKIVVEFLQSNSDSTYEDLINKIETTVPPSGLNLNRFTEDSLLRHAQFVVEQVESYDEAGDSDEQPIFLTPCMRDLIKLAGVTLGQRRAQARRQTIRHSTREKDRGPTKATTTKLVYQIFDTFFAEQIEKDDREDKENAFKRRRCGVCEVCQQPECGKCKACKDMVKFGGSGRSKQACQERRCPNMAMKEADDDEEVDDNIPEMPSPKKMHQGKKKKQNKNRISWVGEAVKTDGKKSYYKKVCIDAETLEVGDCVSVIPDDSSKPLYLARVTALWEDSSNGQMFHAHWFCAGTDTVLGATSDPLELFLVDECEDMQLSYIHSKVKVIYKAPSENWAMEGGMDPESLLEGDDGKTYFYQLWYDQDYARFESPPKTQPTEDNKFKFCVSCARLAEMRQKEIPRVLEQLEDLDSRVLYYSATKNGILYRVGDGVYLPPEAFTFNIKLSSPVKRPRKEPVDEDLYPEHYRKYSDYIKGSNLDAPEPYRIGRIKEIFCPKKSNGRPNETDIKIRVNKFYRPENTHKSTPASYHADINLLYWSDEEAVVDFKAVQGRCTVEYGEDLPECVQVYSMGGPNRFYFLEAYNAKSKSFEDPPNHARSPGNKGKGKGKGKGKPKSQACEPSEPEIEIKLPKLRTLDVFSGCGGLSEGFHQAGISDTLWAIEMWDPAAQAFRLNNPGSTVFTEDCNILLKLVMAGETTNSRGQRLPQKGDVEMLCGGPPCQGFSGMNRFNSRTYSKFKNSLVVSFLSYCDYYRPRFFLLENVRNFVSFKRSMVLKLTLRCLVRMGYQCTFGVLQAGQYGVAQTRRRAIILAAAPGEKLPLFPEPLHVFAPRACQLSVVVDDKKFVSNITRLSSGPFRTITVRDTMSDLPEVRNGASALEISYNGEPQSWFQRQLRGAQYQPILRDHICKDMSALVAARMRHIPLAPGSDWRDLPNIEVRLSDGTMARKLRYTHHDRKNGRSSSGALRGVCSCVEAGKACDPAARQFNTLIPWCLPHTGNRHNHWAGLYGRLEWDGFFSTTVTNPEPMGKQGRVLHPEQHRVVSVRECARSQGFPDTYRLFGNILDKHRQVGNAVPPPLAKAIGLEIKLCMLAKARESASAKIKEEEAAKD
Chain of Mitochondrial peptide methionine sulfoxide reductase (P54149 whole entry): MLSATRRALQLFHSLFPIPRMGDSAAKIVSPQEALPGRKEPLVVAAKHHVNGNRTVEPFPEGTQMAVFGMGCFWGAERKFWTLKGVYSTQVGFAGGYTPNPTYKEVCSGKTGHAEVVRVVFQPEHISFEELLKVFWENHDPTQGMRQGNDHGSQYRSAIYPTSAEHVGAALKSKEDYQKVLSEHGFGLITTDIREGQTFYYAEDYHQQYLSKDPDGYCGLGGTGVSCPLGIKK

Sc1ncnc2c1ncn2-c1ccc(Cl)cc1
IC50 [1]: 29.4 µM (inactive)
IC50 [2]: 1.48 µM (active)
IC50 [3]: 6.29 µM (active)

COc1ccc2ncccc2c1Cc1c(OC)ccc2ncccc12
IC50 [4]: 9.3 µM (active)

CCOC(=O)CC1(C)Sc2ccccc2N1S(=O)(=O)c1ccc(C)cc1 (centres undefined)
AC50 [5]: 28.5 µM (active)

CC(=O)Nc1cc(-c2ccc(C(=O)NC3CC3)cc2)cn2c(-c3cccc(C(F)(F)F)c3)cnc12
EC50 [6]: > 89.2 µM (inactive)
AC50 [7]: 26.8 µM (active)

COc1ccc2cc(-c3n[nH]cc3CN3CCCC3c3nonc3C)ccc2c1 (centres undefined)
IC50 [8]: 85.5 µM (inactive)

O=C(N/N=C/c1ccc(F)cc1)c1cc(-c2ccc3c(c2)OCO3)[nH]n1
IC50 [1]: > 80 µM (inactive)
EC50 [9]: > 350 µM (not active)
IC50 [10]: 9.8 µM (active)
IC50 [2]: 6.61 µM (active)
IC50 [3]: 5.14 µM (active)
EC50 [11]: > 350 µM (not active)

COC(=O)CCCC1=CC2=CC(=O)C(C)(OC(=O)c3cccs3)C(=O)C2=CN1CCc1ccccn1 (centres undefined)
IC50 [12]: 20.9 µM (active)
IC50 [13]: 9.96 µM (active)

CCN1CCN(c2nn3c(=O)c4ccccc4nc3c3ccccc23)CC1
AC50 [14]: 19.9 µM (active)
AC50 [15]: 20 µM (inconclusive)
AC50 [16]: 14.1 µM (inconclusive)

COC(=O)CCCC1=CC2=C(c3ccccc3)C(=O)C(C)(OC(=O)C3CCCC3)C(=O)C2=CN1C1CCCCC1 (centres undefined)
IC50 [12]: 13 µM (active)
IC50 [13]: 6.2 µM (active)

CN(C)CCNC(=O)c1cccc(-c2cnc3c(NC=O)cc(-c4ccc(C(=O)N5CCOCC5)cc4)cn23)c1
AC50 [14]: 47.8 µM (active)
AC50 [17]: 9.04 µM (active)

COC(=O)c1ccc2nc(-c3ccc(F)cc3)c(Cc3ccccc3OC)n2c1
AC50 [5]: 35.2 µM (active)

CNc1cccc(-c2ccc(N3CCN(C)CC3)nc2)n1
IC50 [18]: 2.18 µM (active)

COc1cccc(N2CCN(CC(=O)Nc3ccc(-n4cnnn4)cc3)CC2)c1
IC50 [19]: 6.28 µM (active)

CCN(CC)c1ccc(/C=N/NC(=O)c2ccoc2C)cc1
EC50 [20]: 1.42 µM (active)
EC50 [21]: 3.59 µM (active)
CC50 [22]: 100 µM (active)

CCS(=O)(=O)Nc1ccccc1C(N)=O
IC50 [18]: 2.58 µM (active)

O=C(CCCSc1ccc(Cl)cc1)Nc1ccccc1O
IC50 [23]: 24.1 µM (inactive)
IC50 [24]: 0.158 µM (active)
IC50 [25]: 24.8 µM (inactive)

O=C(CSc1nc(O)c2ccccc2n1)Nc1nc(-c2ccc(Br)cc2)cs1
CC50 [26]: 35.9 µM (active)
IC50 [27]: 5.12 µM (active)

C=CCn1c(S)nnc1C1CC1
IC50 [28]: > 59.6 µM (inactive)
IC50 [29]: > 59.6 µM (inactive)
IC50 [30]: > 59.6 µM (inactive)

Cc1n[nH]c(-c2ccc(O)cc2O)c1Oc1ccccc1
IC50 [31]: 34.2 µM (active)
IC50 [32]: 8.31 µM (active)
CC50 [22]: 100 µM (active)

O=C(O)CC/C(=C\c1cc([N+](=O)[O-])ccc1Cl)c1nc2ccccc2s1
IC50 [28]: > 59.6 µM (inactive)
IC50 [29]: > 59.6 µM (inactive)
IC50 [30]: 43.1 µM (inactive)
